In general, IC50 refers to the midpoint of a concentration-inhibition curve.

One test addresses T1, Human recombinant MMP-2 (Homo sapiens, UniProt P08253).
T1 construct: made in house; host or cells: MMP-2-transfected p2AHT2 cells
T1 sequence (P08253 110-660): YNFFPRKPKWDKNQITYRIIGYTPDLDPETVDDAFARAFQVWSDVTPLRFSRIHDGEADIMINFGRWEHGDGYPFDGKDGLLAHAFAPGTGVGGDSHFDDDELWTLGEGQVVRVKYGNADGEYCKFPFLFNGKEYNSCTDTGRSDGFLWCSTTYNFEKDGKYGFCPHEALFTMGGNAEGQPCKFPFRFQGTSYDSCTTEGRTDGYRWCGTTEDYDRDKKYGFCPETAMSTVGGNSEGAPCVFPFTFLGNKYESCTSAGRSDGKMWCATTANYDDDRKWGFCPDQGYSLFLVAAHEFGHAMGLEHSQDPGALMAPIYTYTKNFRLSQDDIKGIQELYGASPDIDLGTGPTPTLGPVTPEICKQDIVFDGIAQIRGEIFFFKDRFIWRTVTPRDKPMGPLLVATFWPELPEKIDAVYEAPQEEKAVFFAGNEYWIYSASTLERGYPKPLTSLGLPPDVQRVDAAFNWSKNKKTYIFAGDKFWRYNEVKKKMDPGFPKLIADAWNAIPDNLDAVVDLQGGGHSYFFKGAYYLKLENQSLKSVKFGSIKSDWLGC
Nature of the test: In vitro MMP inhibition, IC50 determination (fluorogenic substrate I). It counts as biochemical. To be noted: value outside parentheses (Ki in parenthesis). As to the method: (§1) Several hydroxamates and salts thereof were analyzed in in vitro assays to determine their ability to inhibit the MMP cleavage of peptide substrates. Inhibition (Ki) and IC50 constants were calculated from the assayed hydroxamate-MMP interactions.
(§2) Human recombinant MMP-1, MMP-2, MMP-9, MMP-13, and MMP-14 were used in this assay. All enzymes were prepared in Assignee's laboratories following usual laboratory procedures. Protocols for the preparation and use of these enzymes are available in the scientific literature. See, e.g., Enzyme Nomenclature (Academic Press, San Diego, Calif., 1992) (and the citations therein). See also, Frije et al., J. Biol. Chem., 26(24), 16766-73 (1994).
The MMP-2 proenzyme was purified by gelatin Sepharose chromatography from MMP-2-transfected p2AHT2 cells provided by Dr. Gregory Goldberg of Washington University (St. Louis, Mo.).
(§3) All MMPs were activated using 4-aminophenylmercuric acetate (“APMA”, Sigma Chemical, St. Louis, Mo.) or trypsin. MMP-9 also was activated using human recombinant MMP-3 (purified in Assignee's laboratory following standard cloning and purification techniques).
(§4) Two fluorogenic, methoxycoumarin-containing polypeptide substrates were used in the MMP inhibition assays:
(§5) MCA-ProLeuGlyLeuDpaAlaArgNH2 (I)
(§6) Here, “Dpa” is 3-(2,4-dinitrophenyl)-L-2,3-diaminopropionyl group, and “MCA” is 7-methoxycoumarin-4-yl acetyl. Substrate (I) was purchased from Baychem (Redwood City, Calif.), and substrate II was prepared Assignee's laboratory. Substrate I was used in the IC50 determination assays, while substrate II was used in the Ki determination assays. In the absence of MMP inhibitory activity, either substrate is cleaved at the Gly-Leu peptide bond. This cleavage separates the highly fluorogenic peptide from the 2,4-dinitrophenyl quencher, thus resulting in increase of fluorescent intensity.
(§7) The stock solutions of the assayed hydroxamates (or salts thereof) were prepared in 1% dimethyl sulfoxide (DMSO). These stock solutions were diluted in Buffer A (100 mM Tris-HCl, 100 mM NaCl, 10 mM CaCl2, 0.05% polyoxyethylene 23 lauryl ether, pH 7.5) to obtain solutions with different hydroxamate concentrations, i.e., assay solutions with different concentrations of the assayed MMP inhibitory compound. The experiment controls contained the same amount of Buffer A/DMSO as the assayed sample, but contained no hydroxamate (or salt thereof).
(§8) The assays from which the IC50 determinations were made were performed as follows. The MMPs were activated with either trypsin or APMA (4-aminophenylmercuric acetate, Sigma Chemical, St. Louis, Mo.). The assayed hydroxamate samples were, incubated in Microfluorrm White Plates (Dynatech, Chantilly, VA) and analyzed on a Perkin Elmer L550 plate reader (Norwalk, Conn.). The excitation wavelength was 328 nm, and the emission wavelength—415 nm. All samples (assayed hydroxamates and controls) were incubated in separate plates at room temperature in the presence of 4 μM of MMP substrate (I). As stated in the previous paragraph, samples containing varying concentrations of the same assayed hydroxamate were prepared. Inhibition was measured as a reduction in fluorescent intensity as a function of MMP inhibitor concentration.

A further test addresses T2, Human recombinant MMP-13 (Homo sapiens, UniProt P45452).
T2 construct: made in house; host or cells: baculovirus / insect cells
Described as above. It counts as biochemical. To be noted: value outside parentheses (Ki in parenthesis). The procedure:
as §1, §2
The expressed proenzyme was first purified over a heparin agarose column, and then over a chelating zinc chloride column. The proenzyme was then activated by APMA for use in the assay. Further details on baculovirus expression systems may be found in, for example, Luckow et al., J. Virol., 67, 4566-79 (1993). See also, O'Reilly et al, Baculovirus Expression Vectors: A Laboratory Manual (W. H. Freeman and Co., New York, N.Y., 1992). See also, King et al., The Baculovirus Expression System: A Laboratory Guide (Chapman & Hall, London, England, 1992).
as §3, §4, §5, §6, §7, §8

Regarding `COc1cc2c(cc1OC)CN(CCCCOc1ccc(S(=O)(=O)C3(C(=O)NO)CCOCC3)cc1)CC2` [Example 338], the IC50 was 20.6 nM on Human recombinant MMP-2 and 138 nM at Human recombinant MMP-13.
For the compound `COc1ccc(C(=O)NCCNc2ccc(S(=O)(=O)C3(C(=O)NO)CCOCC3)cc2)cc1` [Example 339], the IC50 worked out at 1210 nM on Human recombinant MMP-2 and 933 nM on Human recombinant MMP-13.
Taken in the same sequence, the figures for `O=C1c2cc3ccccc3cc2C(=O)N1CCCOc1ccc(S(=O)(=O)C2(C(=O)NO)CCOCC2)cc1` [Example 343] were 7700 nM and 2.4 nM.
Turning to `CC(C)N(Cc1ccc(C(=O)CCCCOc2ccc(S(=O)(=O)C3(C(=O)NO)CCOCC3)cc2)cc1)C(C)C` [Example 344], the IC50 at Human recombinant MMP-2 was 12.7 nM; on Human recombinant MMP-13 it was 4.6 nM.
In the case of `COc1ccc(/C(C)=C/CCCOc2ccc(S(=O)(=O)C3(C(=O)NO)CCOCC3)cc2)c(OC)c1` [Example 345], the IC50 came out at 271 nM at Human recombinant MMP-2 and 14.3 nM at Human recombinant MMP-13.
Consider `COc1ccc(C(C)(O)CCCCOc2ccc(S(=O)(=O)C3(C(=O)NO)CCOCC3)cc2)cc1` (stereo not shown) [Example 347], for which the IC50 was found to be 10.3 nM at Human recombinant MMP-2 and 1.8 nM on Human recombinant MMP-13.
Take `COc1ccc(C(=CCCCOc2ccc(S(=O)(=O)C3(C(=O)NO)CCOCC3)cc2)c2ccc(OC)cc2)cc1` [Example 349]: the IC50 on Human recombinant MMP-2 came out at 505 nM; at Human recombinant MMP-13, 39 nM.
On to `COc1ccc(C(=O)NCCCNc2ccc(S(=O)(=O)C3(C(=O)NO)CCOCC3)cc2)cc1` [Example 358], for which the results for the IC50 at Human recombinant MMP-2 and at Human recombinant MMP-13 were 768 nM and 14.6 nM, respectively.
Take `COc1ccc(C(=O)NCCCOc2ccc(S(=O)(=O)C3(C(=O)NO)CCOCC3)cc2)cc1OC` [Example 362]: the IC50 on Human recombinant MMP-2 was 347 nM; at Human recombinant MMP-13, 3.7 nM.
Taken in the same sequence, the figures for `COc1ccccc1C(=O)NCCCOc1ccc(S(=O)(=O)C2(C(=O)NO)CCOCC2)cc1` [Example 363] were 430 nM and 7 nM.
With `O=C(NCCCOc1ccc(S(=O)(=O)C2(C(=O)NO)CCOCC2)cc1)c1ccc(-c2ccccc2)cc1` [Example 365], the IC50 on Human recombinant MMP-2 turned out to be 21 nM; at Human recombinant MMP-13 it was 0.6 nM.
The corresponding values for `O=C(NCCCOc1ccc(S(=O)(=O)C2(C(=O)NO)CCOCC2)cc1)c1ccc2ccccc2c1` [Example 366] are 347 nM and 0.3 nM.
Turning to `N#Cc1cccc(C(=O)NCCCOc2ccc(S(=O)(=O)C3(C(=O)NO)CCOCC3)cc2)c1` [Example 367], the results for the IC50 on Human recombinant MMP-2 and on Human recombinant MMP-13 were 235 nM and 4.5 nM, respectively.
On to `O=C(NCCCOc1ccc(S(=O)(=O)C2(C(=O)NO)CCOCC2)cc1)c1ccc([N+](=O)[O-])cc1` [Example 369], for which the half-maximal inhibitory concentration (IC50) worked out at 155 nM at Human recombinant MMP-2 and 1.5 nM on Human recombinant MMP-13.
Consider `Cc1cc(C)c(C(=O)NCCCOc2ccc(S(=O)(=O)C3(C(=O)NO)CCOCC3)cc2)c(C)c1` [Example 370], for which the results for the IC50 on Human recombinant MMP-2 and at Human recombinant MMP-13 were 900 nM and 37 nM, respectively.
In the case of `O=C(NCCCOc1ccc(S(=O)(=O)C2(C(=O)NO)CCOCC2)cc1)c1ccccc1O` [Example 372], the IC50 at Human recombinant MMP-2 was determined as 210 nM; at Human recombinant MMP-13, 6 nM.
For the compound `CC(C)(C)c1ccc(C(=O)NCCCOc2ccc(S(=O)(=O)C3(C(=O)NO)CCOCC3)cc2)cc1` [Example 374], the IC50 came out at 800 nM on Human recombinant MMP-2 and 8 nM on Human recombinant MMP-13.
The corresponding values for `O=C(NCCCOc1ccc(S(=O)(=O)C2(C(=O)NO)CCOCC2)cc1)c1cccc2ccccc12` [Example 375] are 425 nM and 17 nM.
Regarding `COc1ccc2cc(O)c(C(=O)NCCCOc3ccc(S(=O)(=O)C4(C(=O)NO)CCOCC4)cc3)cc2c1` [Example 377], the IC50 was 1270 nM at Human recombinant MMP-2 and 5.9 nM at Human recombinant MMP-13.
`O=C(NCCCOc1ccc(S(=O)(=O)C2(C(=O)NO)CCOCC2)cc1)c1cc2cc(O)ccc2cc1O` [Example 378]: the IC50 was 655 nM on Human recombinant MMP-2 and 2.7 nM at Human recombinant MMP-13.
As to `O=C(NCCCOc1ccc(S(=O)(=O)C2(C(=O)NO)CCOCC2)cc1)c1cc2cccc(O)c2cc1O` [Example 379], the figures for the half-maximal inhibitory concentration (IC50) at Human recombinant MMP-2 and at Human recombinant MMP-13 were 258 nM and 10 nM, respectively.
The corresponding values for `COc1ccc2cc(C(=O)NCCCOc3ccc(S(=O)(=O)C4(C(=O)NO)CCOCC4)cc3)ccc2c1` [Example 380] are 450 nM and 0.2 nM.
Turning to `O=C(NCCCOc1ccc(S(=O)(=O)C2(C(=O)NO)CCOCC2)cc1)c1ccc(Cl)nc1` [Example 381], the IC50 on Human recombinant MMP-2 amounted to 193 nM; at Human recombinant MMP-13 it was 1.4 nM.
For the compound `O=C(NCCCOc1ccc(S(=O)(=O)C2(C(=O)NO)CCOCC2)cc1)c1ccccn1` [Example 382], the IC50 at Human recombinant MMP-2 stood at 59 nM; on Human recombinant MMP-13, 1.7 nM.
In the case of `O=C(NCCCOc1ccc(S(=O)(=O)C2(C(=O)NO)CCOCC2)cc1)c1ccncc1` [Example 383], the IC50 on Human recombinant MMP-2 is 351 nM; on Human recombinant MMP-13 it was 7.5 nM.
As for `N#Cc1ccc(C(=O)NCCCOc2ccc(S(=O)(=O)C3(C(=O)NO)CCOCC3)cc2)cc1` [Example 387], the results for the IC50 on Human recombinant MMP-2 and on Human recombinant MMP-13 were 83 nM and 2.2 nM, respectively.
Taken in the same sequence, the figures for `O=C(NCCCOc1ccc(S(=O)(=O)C2(C(=O)NO)CCOCC2)cc1)c1ccc2ccccc2c1O` [Example 388] were 185 nM and 2 nM.
For `O=C(NCCCOc1ccc(S(=O)(=O)C2(C(=O)NO)CCOCC2)cc1)c1ccc2ccccc2n1` [Example 389], the values for the IC50 on Human recombinant MMP-2 and at Human recombinant MMP-13 were 47 nM and 0.5 nM, respectively.
In the case of `Cn1cccc1C(=O)NCCCOc1ccc(S(=O)(=O)C2(C(=O)NO)CCOCC2)cc1` [Example 391], the IC50 turned out to be 900 nM at Human recombinant MMP-2 and 7 nM on Human recombinant MMP-13.
In the case of `COc1ccc(C(=O)NCCOc2ccc(S(=O)(=O)C3(C(=O)NO)CCOCC3)cc2)cc1` [Example 393], the IC50 on Human recombinant MMP-2 came out at 50 nM; on Human recombinant MMP-13, 45 nM.
In the case of `C[C@H](COc1ccc(S(=O)(=O)C2(C(=O)NO)CCOCC2)cc1)NC(=O)c1ccc(N(C)C)cc1` [Example 394], the IC50 stood at 3200 nM on Human recombinant MMP-2 and 1900 nM on Human recombinant MMP-13.
On to `C[C@@H](COc1ccc(S(=O)(=O)C2(C(=O)NO)CCOCC2)cc1)NC(=O)c1ccc(N(C)C)cc1` [Example 395], for which the IC50 came out at 6000 nM at Human recombinant MMP-2 and 305 nM on Human recombinant MMP-13.
Taken in the same sequence, the figures for `COc1ccc(C(=O)NCCCCOc2ccc(S(=O)(=O)C3(C(=O)NO)CCOCC3)cc2)cc1` [Example 396] were 4 nM and 4 nM.
`CN(C)c1ccc(C(=O)NCCCCOc2ccc(S(=O)(=O)C3(C(=O)NO)CCOCC3)cc2)cc1` [Example 397]: the IC50 on Human recombinant MMP-2 came to 3 nM; at Human recombinant MMP-13, 14 nM.
For the compound `O=C(NCCCOc1ccc(S(=O)(=O)C2(C(=O)NO)CCOCC2)cc1)C1CCCCC1` [Example 399], the IC50 is 650 nM on Human recombinant MMP-2 and 8 nM on Human recombinant MMP-13.
